The test system of series [1] is rats. As to the kind of experiment: Activity level tests (10 minute session). Conditions: 0.5 mg/kg; 10 minute period one hour after injection; FIGS. 16-21.
Series [2] relates to IA memory in the rat. As to the kind of experiment: Inhibitory Avoidance (IA) task, normal rats. It counts as in vivo. Conditions: for performance on the IA task, normal rats: one hour before, p<0.05 relative to all other groups; for long-term retention of the IA task: second retention test one week after the first, no additional training or drug. Here is the method:
An exemplary passive avoidance test utilizes an apparatus that consists of a lit chamber that can be separated from a dark chamber by a sliding door. At training, the animal is placed in the lit chamber for some period of time, and the door is opened. The animal moves to the dark chamber after a short delay—the latency—that is recorded. Upon entry into the dark chamber, the door is shut closed and a foot shock is delivered.
The Inhibitory Avoidance (IA) task is a well-studied behavioral paradigm which can provide the researcher with a consistent and long-lasting measure of memory. The paradigm consists of one training trial and one retention trial. Test articles may be administered to the rats either before or after training. […] The objective of the following experiments was to investigate the effects of methylphenidate on IA memory in the rat.

The test system of series [3] is fornix lesion rats. As to the kind of experiment: Inhibitory Avoidance (IA) task, rats with lesions of the fornix (amnesic rats). It counts as in vivo, rat. Conditions: one hour before; for performance of treated fornix animals compared with normal, saline injected animals: Student-Newman-Keuls post hoc test. The source says: Animal models for studying fornix-mediated memory consolidation have previously been described. See, for example, Taubenfield et al., Supra. The fornix-lesioned animals can be used for drug screening, e.g., to identify dosages of the subject reuptake inhibitors which enhance memory consolidation. The lesioned mammal can have a lesion of the fornix or a related brain structure that disrupts memory consolidation (e.g., perirhinal cortex, amygdala, medial septal nucleus, locus coeruleus, hippocampus, mammallary bodies). Lesions in the mammal can be produced by mechanical or chemical disruption. For example, the fornix lesion can be caused by surgical ablation, electrolytic, neurotoxic and other chemical ablation techniques, or reversible inactivation such as by injection of an anesthetic, e.g., tetrodotoxin or lidocaine, to temporarily arrest activity in the fornix.
In one embodiment, the animal can be a rat. Briefly, the animals are anesthetized, e.g., with intraperitoneal injections of a ketamine-xylazine mixture and positioned in a Kopf stereotaxic instrument. A sagittal incision is made in the scalp and a craniotomy is performed extending 2.0 mm posterior and 3.0 mm lateral from Bregma. An aspirative device, e.g., with a 20 gauge tip, is mounted to a stereotaxic frame (Kopf Instruments) and fimbria-fornix is aspirated by placing the suction tip at the correct sterotaxic location in the animals brain. Unilateral aspirative lesions are made by suction through the cingulate cortex, completely transecting the fimbria fornix unilaterally, and (optionally) removing the dorsal tip of the hippocampus as well as the overlying cingulate cortex to inflict a partial denervation on the hippocampus target. See also, Gage et al., (1983) Brain Res. 268:27 and Gage et al. (1986) Neuroscience 19:241.
The Inhibitory Avoidance (IA) task is a well-studied behavioral paradigm which can provide the researcher with a consistent and long-lasting measure of memory. The paradigm consists of one training trial and one retention trial. Test articles may be administered to the rats either before or after training. Improved memory, as a result of test compound administration, is evident as increased latency on the retention trial. The objective of the following experiments was to investigate the effects of methylphenidate on IA memory in the rat.
In the next experiment, we investigated whether the performance of amnesic rats could be improved by administration of methylphenidate. In this experiment, control rats and rats with lesions of the fornix received injections of either saline or methylphenidate (5 mg/kg), and one hour later, were tested on the IA task.
In the next experiment, we investigated whether the performance of amnesic rats could be improved by administration of amphetamine. […]

Regarding `C[C@@H](N)Cc1ccccc1` [R-(−)amphetamine], the “activity levels (distance, movements, movement time, rears, stereotyped movements, resting time) versus saline control” value in series [1] is recorded as “no significant effects on the activity levels”. The “retention of the IA task (second, verifying experiment)” value in series [2] (0.5 mg/kg one hour prior to training, 24 hour retention interval, 0.46 mA shock, unpaired t-test p<0.002, FIG. 15) is “significantly improved retention of the task”. Also, the “dose required for improved retention of the IA task, compared with S-(+)amphetamine” value in series [2] (0.5, 1.0, 2.0 or 4.0 mg/kg one hour prior to training, 24 hour retention interval, 0.46 mA shock, FIG. 14) was “a much lower dose of R-(−)amphetamine is required for the same improved retention effect”. For the same compound, in series [2] (1.0, 2.0 or 4.0 mg/kg versus 0.5 mg/kg, one hour prior to training, 24 hour retention interval, FIG. 14), the “retention of the IA task at doses above 0.5 mg/kg” value was “did not further improve the retention results”.
With `C[C@H](N)Cc1ccccc1` [S-(+)amphetamine], the “performance on the IA task, fornix lesion rats” value in series [3] (200 standard units/kg, FIG. 8) is recorded as “appeared to improve the performance of the fornix lesion rats”. The “performance of treated fornix animals compared with normal, saline injected animals” value in series [3] (200 standard units/kg) is listed as “not significantly different from normal, saline injected animals”. The “retention of the IA task” value is listed as “improved retention of the task” in series [2] (2 mg/kg (200 standard units) one hour prior to training, 24 hour retention interval, 0.46 mA shock, FIG. 9); “no effect” in series [2] (25 standard units/kg, injected thirty minutes prior to training, FIG. 4); “no effect” in series [2] (50 standard units/kg, injected thirty minutes prior to training, FIG. 4); “no effect” in series [2] (100 standard units/kg, injected thirty minutes prior to training, FIG. 4); “improved retention of the task” in series [2] (200 standard units, injected thirty minutes prior to training, FIG. 4). Further, the “performance on the IA task, normal rats” value in series [2] (200 standard units/kg, FIG. 8) is “dramatically enhanced the performance of normal rats”. In series [2] (200 standard units/kg, unpaired t-test p<0.01, FIG. 5), the “retention of the IA task (second, verifying experiment)” value is given as “significantly improved retention of the task”. Further, the “long-term retention of the IA task” value in series [2] (F(4,47)=3.688, p<0.01, FIG. 7) is recorded as “performed significantly better than rats that had received control injections of vehicle solution”.
As for `COC(=O)C(c1ccccc1)C1CCCCN1` (centres unmarked) [methylphenidate], in series [3] (5 mg/kg, FIG. 3), the “performance on the IA task, fornix lesion rats” value is listed as “appeared to improve the performance of the fornix lesion rats”. Also, in series [3] (5 mg/kg), the “performance of treated fornix animals compared with normal, saline injected animals” value was “not significantly different from normal, saline injected animals”. Besides, the “performance on the IA task, normal rats” value in series [2] (5 mg/kg, FIG. 3) is “dramatically enhanced the performance of normal rats”. Further, the “retention of the IA task” value in series [2] (50 standard units/kg, injected thirty minutes prior to training, FIG. 1) is on record as “improved retention”; in series [2] (100 standard units/kg, injected thirty minutes prior to training, FIG. 1), “no effect”; in series [2] (150 standard units/kg, injected thirty minutes prior to training, FIG. 1), “no effect”. In addition, the “optimal pre-training drug administration time” value in series [2] (50 standard units/kg, time of administration varied) is listed as “most effective when administered to the rats one hour prior to training”. Further, the “retention of the IA task (second, verifying experiment)” value in series [2] (50 standard units/kg, unpaired t-test p<0.03, FIG. 2) is reported as “significantly improved retention of the task”. For the same compound, in series [2], the “long-term retention of the IA task” value is reported as “this improvement is long lasting”.
